Results published in patent US20250154611A1, “SYSTEMS AND METHODS TO DETECT STEM CELL STRESS AND USES THEREOF” (Wayne State University, priority 2014, published 2025).

Biological target: T1, AKT (Mus musculus, UniProt P31750)
T1 construct: endogenous in cells; host or cells: mESC-D3 (ATCC)
Assay: phospho-AKT western blot in mESCs under 200 mM sorbitol
Type: cell-based
Conditions: 200 mM; persisted through 1 hr
Protocol: FIG. 14. […] Blots are representative of triplicate experiments. Phospho-proteins and their loading controls are grouped between black lines.
FIG. 15. […] Blots are representative of triplicate experiments.
Hyperosmotic activation of signaling enzymes. […] Zhong, 2010; Xie, 2011. […] To determine the kinetics of activation of these five kinases in the described system, mESCs were treated with 200 mM sorbitol for 1 hr. Expression levels of the activated (i.e., phosphorylated) enzymes were assayed by western blot analysis (FIG. 14), including phospho-p38MAPK, phospho-JNK, phospho-MEK1/2, and phospho-AKT (the downstream effector of PI3K signaling).
Efficacy of enzyme inhibitors.

T1 sequence (P31750 whole entry): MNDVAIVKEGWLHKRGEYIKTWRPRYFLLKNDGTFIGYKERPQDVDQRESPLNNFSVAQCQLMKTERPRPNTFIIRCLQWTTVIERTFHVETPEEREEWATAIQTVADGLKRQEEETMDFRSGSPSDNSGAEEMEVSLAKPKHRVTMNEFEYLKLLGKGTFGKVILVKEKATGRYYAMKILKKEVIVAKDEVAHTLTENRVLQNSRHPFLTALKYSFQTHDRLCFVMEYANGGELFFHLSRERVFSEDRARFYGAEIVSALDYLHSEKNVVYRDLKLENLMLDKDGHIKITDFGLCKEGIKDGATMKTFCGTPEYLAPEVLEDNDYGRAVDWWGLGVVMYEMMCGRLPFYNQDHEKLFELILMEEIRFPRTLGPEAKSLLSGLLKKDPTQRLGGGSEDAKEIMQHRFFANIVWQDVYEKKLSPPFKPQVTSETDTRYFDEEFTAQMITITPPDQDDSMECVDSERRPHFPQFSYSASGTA

## OC[C@@H](O)[C@@H](O)[C@H](O)[C@@H](O)CO [sorbitol]
  time of increased AKT activation: 20 to 30 min
